Values joined by “and” are separate entries in the source; they are usually repeats but may differ in a detail not shown here. Equal entries are not always repeated. Where two headings read alike, the source gives them in different places. Where a SMILES comes first, the peptide text is derived from it.
What was measured:
[1] = system: Iba1 (activated microglia); assay: Brain immunohistochemistry, gliosis (Iba1-positive cells); assay type: in vivo, mice
Protocol: (§1) Group 2 TG-VEH: 5xFAD mice treated with vehicle of formulation (saline).
(§2) Group 3 TG-NBP14: 5xFAD mice treated with NBP-14 at the dose 10 mg/kg.
(§3) Histological Time-Points: • After 1 single treatment at the start of treatment, in a satellite group of mice (T0W). • After 6 weeks of treatment (T6W) in a satellite group of mice. • After 14 weeks of treatment (14W) in a group of mice from NOR cohorts (analysis ongoing).
(§4) Brain samples from all Tg-5XFAD mice were fixed, cryosectioned and immunostained for detection of amyloid, phosphorylated Tau and gliosis using the antibodies listed in Table 1.
(§5) Serial sections were collected and every sixth section starting at the midline were immunostained for markers of AD pathology. A total of six sections per animal were used for quantitative analysis.
(§6) Having shown the ability of NBP-14 to reverse the cognitive decline observed in Tg-5XFAD mice as discussed above, the inventors then sought to determine the structural or physiological changes occurring in the brains of mice treated with NBP-14. […]

transgenic Tg-5XFAD mice [2] = assay: Behavioural scoring of grooming/sitting during NOR procedure; assay type: in vivo; conditions: chronic treatment, T1 and T2 phase of NOR procedure, 10 min each
Protocol: Grooming/sitting/locomotion was measured on the mice subjected to NOR testing [i.e., Wild Type data included at 14 weeks post treatment].
Behavioural scoring was assessed during the T1 (familiar) and T2 (novel) phase of NOR procedure (over 10 min each phase).

phosphorylated Tau = assay: Brain immunohistochemistry, phosphorylated Tau (AT180, AT8); assay type: in vivo, mice; conditions: for Intracellular phosphorylated Tau immunoreactivity (AT180): hippocampus and cortex of 5XFAD mice
Protocol: as §1, §2, §3, §4, §5
(§7) Having shown the ability of NBP-14 to reverse the cognitive decline observed in Tg-5XFAD mice as discussed above, the inventors then sought to determine the structural or physiological changes occurring in the brains of mice treated with NBP-14. The inventors utilised histological staining of the brain to determine the changes of various brain-located markers (i.e. phosphorylated Tau, NeuN, (3-amyloid, and Ibal) that are associated with cognitive decline in both 5XFAD mice and also mice that had been treated with NBP-14. These biomarkers were measured after acute treatment with NBP-14 and also six weeks after treatment.

[3] = Blood/brain exposure to NBP-14 after intranasal administration (PK assessment); assay type: in vivo, mice; conditions: for level at 0.5 h / tissue level at time at 0.5 h: 5XFAD, mouse, inhaled or intranasal; for level at 0.5 h: blood, read-out: Blood Concentration; for tissue level at time at 0.5 h: brain, read-out: Brain Concentration
Protocol: Assessment of PK profile for NBP14, 10mg/kg, to allow PK/PD correlations • Satellite group of mice at T0W and T6W. • Mice from NOR test at T14W.
Group 3 TG NBP14: 5XFAD mice (n=3 for each PK) treated with NBP14 at the dose 10 mg/kg.
After 1 single treatment at the start of treatment (T0W) in a satellite group of mice.
After 6 weeks of treatment (T6W) in a satellite group of mice. The day of PK profile mice were treated with NBP14.
After 14 weeks of treatment (14W) in 2 group of mice from NOR cohorts.
On the day of PK study, mice were treated with NBP14 at 10mg/kg (IN) and blood/brain collected at 30 minutes after treatment.
An additional group of mice was subjected to blood/brain collection for NBP14 exposure without treatment on the same day at the terminal time point, after 14 weeks of treatment, to evaluate an eventual accumulation of test compound (table 1).
The inventors measured the concentration of nasally applied NBP-14 in the blood and the brain of mice, to determine whether NBP-14 was capable of crossing the blood brain barrier when applied intranasally.

transgenic Tg-5XFAD mice [4] = assay: Novel Object Recognition (NOR) test for cognitive readout; assay type: in vivo
Excerpt: Assessment of Novel Object Recognition (NOR) test at the following time points: • T0W, basal NOR behaviour immediately before starting of the experiment. • T6W, 6 weeks after starting of treatment. • T14W, 14 weeks after starting of treatment.
Group 1 WT mice (n=15) used as control animal during the experimental procedure. No subject to treatment.
Group 2 TG VEH: 5XFAD mice (n=14) treated with vehicle of formulation (saline).
Group 3 TG NBP14: 5XFAD mice (n=28) treated with NBP14 at the dose 10 mg/kg.
NOR behavioural assessment time points: • Immediately before start of treatment (T0W) • 6 weeks after start of treatment (T6W) • 14 weeks after start of treatment (T14W)
Behaviour recorded on video for subsequent scoring for the object exploration. Object investigation has been defined as directing the nose towards the object (i.e., sniffing or touching with the nose) at a distance of 2 cm or less. Climbing and sitting on the objects is not considered to be object examination.
A criterion of minimal level of object exploration was used in the study to exclude animals with naturally low levels of spontaneous exploration: mice having a minimal level of object exploration of lOs during the test trail will be included in the study.
Results were expressed as the total time spent (seconds) by animal towards the objects. The recognition index (RI) was also calculated as follows: (time exploring the novel object)/(time exploring novel+familiar)*100.
The inventors utilised a “novel object recognition” test, which measures the difference of the time spent exploring an unknown (i.e. novel) object versus a known or familiar object to determine the ability of mice to discriminate between novel and familiar objections that can be used as in indication of memory. The inventors used this test to determine the ability of NBP-14 to reverse memory decline in the transgenic mouse, Tg 5XFAD, predisposed to develop amyloid precursor protein (APP) and therefore amyloid plaques, and ultimately, dementia.
The inventors then determined the recognition index of mice. A recognition index above 50% reflects the ability of mice to explore an unfamiliar object (novel) than a recently presented object.

NeuN positive neurons = assay: Brain immunohistochemistry, neuronal cell count (NeuN); assay type: in vivo, mice; conditions: cortex and hippocampus
Protocol: as §1, §2, §3, §4, §5, §6

5xFAD mice = assay: Clinical signs during intranasal treatment of 5xFAD mice; assay type: in vivo; conditions: 30 mg/kg intranasal, dose lowered to 10 mg/kg from 2nd week
Protocol: Intranasal (IN, nose to brain) twice a week for 14 weeks (Volume of administration 10 μL/.

β-amyloid = assay: Brain immunohistochemistry, β-amyloid (6E10 antibody); assay type: in vivo, mice; conditions: for Mean intensity of β-amyloid (6E10) compared to vehicle: 6 weeks of treatment
Protocol: as §1, §2, §3, §4, §5, §7

[5] = acute treatment, cortex and hippocampus, visual inspection
[6] = 10 mg/kg, 5XFAD mice, 10 mg/kg intranasal twice a week, T = 14W [terminal], sampling 30 min after administration
[7] = T = 14W [terminal], treated 14 weeks but no treated last day

Compound: CSCC[C@@H]1NC(=O)[C@H](Cc2ccc(O)cc2)NC(=O)[C@H](CO)NC(=O)[C@H](CO)NC(=O)[C@H](Cc2c[nH]c3ccccc23)NC(=O)[C@H](CCCNC(=N)N)NC(=O)[C@H](Cc2c[nH]cn2)NC(=O)[C@H](Cc2ccccc2)NC(=O)[C@H](CCC(=O)O)NC(=O)[C@H](C)NC(=O)[C@H](CCCCN)NC(=O)[C@H](Cc2c[nH]c3ccccc23)NC(=O)[C@H](Cc2c[nH]cn2)NC(=O)[C@H](C(C)C)NC1=O [NBP-14] (HELM PEPTIDE1{A.E.F.H.R.W.S.S.Y.M.V.H.W.K}$PEPTIDE1,PEPTIDE1,1:R1-14:R2$$$V2.0)
- Gliosis (Iba1-positive cells) compared to vehicle ([1]; 6 weeks of treatment, hippocampus): significant (P<0.005) decrease
- Total number or density of Iba1-positive cells compared to vehicle [1, 5]: no differences
- Reduction in sitting behaviour seen in vehicle-treated Tg-5XFAD mice (transgenic Tg-5XFAD mice [2]): reversed
- Intracellular phosphorylated Tau immunoreactivity (AT180) (phosphorylated Tau; 6 weeks treatment): no specific intracellular phosphorylated Tau immunoreactivity was detected
- pTau detected with AT8 (pS202/pT205) in non-neuronal (NeuN negative) cells (phosphorylated Tau; 14 weeks chronic treatment, cortex and hippocampus, very low levels seen in vehicle-treated mice): not in mice treated with NBP-14
- pTau detection (AT180) (phosphorylated Tau; 14 weeks chronic treatment, hippocampus, cortex, basal forebrain): no pTau (gold) was detected
- Intracellular phosphorylated Tau immunoreactivity (AT180) (phosphorylated Tau; acute treatment): no specific intracellular phosphorylated Tau immunoreactivity was detected
- Brain Concentration ([3]; 5XFAD mice, 10 mg/kg intranasal, T = 0 (single treatment), sampling 30 min after administration): bql
- level at 0.5 h [3, 6]: 202 ng/mL
- level at 0.5 h ([3]; 10 mg/kg, 5XFAD mice, 10 mg/kg intranasal, T = 0 (single treatment), sampling 30 min after administration): 44.5 ng/mL
- tissue level at time at 0.5 h ([3]; 10 mg/kg, 5XFAD mice, 10 mg/kg intranasal twice a week, T = 6W [intermediate], sampling 30 min after administration): 19.3 ng/g
- tissue level at time at 0.5 h [3, 6]: 53 ng/g
- BB Ratio ([3]; T = 14W [terminal], 10 mg/kg intranasal, 30 min after administration, 10 mg/kg): 0.26 and 0.21 and 0.30
- Blood Concentration [3, 7]: bql
- Brain Concentration [3, 7]: bql
- Detection of NBP-14 in the brain ([3]; after acute treatment): no NBP-14 was observed in the brain
- Detection of NBP-14 in the brain ([3]; intranasal, after both 6 weeks and 14 weeks of treatment): detected in the brain
- Accumulation of the compound ([3]; mice treated for 14 weeks, not treated on the day of blood/brain collection): no accumulation
- Recognition index (RI) compared to vehicle-treated 5xFAD mice (transgenic Tg-5XFAD mice [4]; 10 mg/kg, terminal time point (14 weeks), n=27): statistical significant difference
- Time exploring the novel versus familiar object (transgenic Tg-5XFAD mice [4]; 5XFAD mice, 10 mg/kg intranasal twice a week, 6 weeks after treatment, n=28): no significant difference
- Time spent exploring novel object versus familiar object (transgenic Tg-5XFAD mice [4]; 5XFAD mice, 10 mg/kg intranasal twice a week, 14 weeks after treatment, n=27): statistically significant difference
- Cognitive performance compared to 5XFAD vehicle-treated mice (transgenic Tg-5XFAD mice [4]; 6 week time point of NOR testing): no statistically significant differences
- Total number or density of NeuN positive neurons compared to vehicle (NeuN positive neurons; 6 weeks of treatment): no differences
- Total number or density of NeuN positive neurons compared to vehicle (NeuN positive neurons; acute treatment): no differences
- Clinical signs (5xFAD mice): relevant clinical sign
- Mean intensity of β-amyloid (6E10) compared to vehicle (β-amyloid; cortex (P<0.05)): significant decrease
- Mean intensity of β-amyloid (6E10) compared to vehicle (β-amyloid; hippocampus (P<0.005)): significant decrease
- Extracellular amyloid plaques compared to vehicle-treated controls (β-amyloid; 14 weeks, cortex, hippocampus and basal forebrain): significantly reduced
- Mean intensity of 6E10 (Aβ) compared to vehicle (β-amyloid; [5]): No differences

From patent US20240058424A1, “NBP-14 FOR TREATING ALZHEIMER'S ASSOCIATED WITH DOWN'S SYNDROME” (NEURO-BIO LTD, priority 2020, published 2024)
